Several values for one entry are separate records, joined by “and”; a condition that tells them apart may be missing. Identical values can stand only once. Ends that are not written are not given here.
Assays:
PDZ1 of PSD-95 = target: T1, PDZ1 of PSD-95 (Homo sapiens, UniProt P78352); assay: FP heterologous competition binding assay; settings: for Ki: FP competition, mean ± SEM, NA = no activity/affinity
T1 construct: PSD-95 PDZ1 (residues 61-151); made in house; host or cells: E. coli BL21-DE3 pLysS
Source text: (§1) Determined IC50 values may be converted to Ki values.^5 Suitable fluorophores include either 5-FAM or Cy5, which may be coupled to a tripeptide (KSG or CSG) linker attached to the N-terminus of the undecapeptide, to give 5-FAM-NR2B, Cy5-NR2B, 5-FAM-CRIPT and Cy5-CRIPT. The 5-FAM fluorophore may be attached to the undecapeptides by coupling with HATU. The Cy5 fluorophore may be conjugated to the undecapeptides by coupling Cy5-maleimide to the cysteine side chain of the tripeptide sequence CSG attached to the N-terminus of the peptide, as detailed in the Methodology section.
(§2) To measure the affinities between non-fluorescent peptides and PDZ domains, heterologous competition bindings assay were performed. This was done by adding increasing concentrations of peptide to a fixed concentration of Cy5-NR2B, 5-FAM-NR2B, Cy5-CRIPT or 5-FAM-CRIPT (50 nM) and PDZ (20 μM for PDZ1, 3 μM for PDZ2 and 1-2 and 5 μM for PDZ3) in the same TBS buffer and conditions as described above. FP values were then fitted to the general equation: Y=Bottom+(Top−Bottom)/[1[…](10̂^X-logIC50)], where X is the logarithmic value of peptide concentration. Hereby the IC50 value was obtained, which is used to calculate the theoretical competitive inhibition constant, Ki.^5
(§3) A convenient and reliable way to examine interactions between peptide analogues and PDZ domains is by using a fluorescence polarization (FP) assay. The three PDZ domains, PDZ1-3, of PSD-95 were expressed individually as set out above, while PDZ1-2 was also expressed as a tandem construct. […] IC50 values were then converted to Ki values.^5

PDZ2 of PSD-95 = target: T2, PDZ2 of PSD-95 (Homo sapiens, UniProt P78352); assay: FP heterologous competition binding assay; settings: for Ki: FP competition, mean ± SEM, NA = no activity/affinity
T2 construct: PDZ2 (residues 155-249); made in house; host or cells: E. coli BL21-DE3 pLysS
Source text: as §1, §2, §3

PDZ3 of PSD-95 = target: T3, PDZ3 of PSD-95 (Homo sapiens, UniProt P78352); assay: FP heterologous competition binding assay; settings: for Ki: FP competition, mean ± SEM, NA = no activity/affinity
T3 construct: PDZ3 (residues 309-401); made in house; host or cells: E. coli BL21-DE3 pLysS
Source text: as §1, §2, §3

[1] = test system: cultured cortical neurons; assay: Neuronal NMDA excitotoxicity assay (LDH release); format: cell-based, rat; settings: 500 nM
Source text: When cultured cortical neurons are exposed to high concentrations of NMDA, an excitoxic cascade is initiated, which leads to cellular damage and ultimately neuronal cell death. Consequently, the cell membranes are destroyed, and cytoplasmic enzymes are released into the cell surroundings. The extent of this neuronal cell death can be quantified by measuring the release of cytoplasmic lactate dehydrogenase (LDH) enzyme into the cell medium. The compounds of interest and control compound (3) are investigated with respect to their abilities to attenuate NMDA-mediated toxicity. Compounds that are active in this assay are both membrane permeable, and can prevent ex vivo excitotoxicity, which are important properties for therapeutics towards excitotoxicity mediated diseases.
Cortical neurons were surgically removed from rats (e.g. E21) and then cultured for 7-9 days in vitro in Neurobasal A medium with B-27 supplement (each supplied by Invitrogen), further supplemented with 1 mM glutamine, 50 units/ml penicillin, and 50 μg/ml streptomycin. The following steps were then performed:
1. Samples of the cultured cortical neurons were removed from the Neurobasal-A based culture medium, at various time points prior to exposure to compound, and placed into “transfection medium” ([…]; as defined by Bading et al (1993) Science 260, 181-186) comprising: 10% modified Minimum Essential Medium (supplied by Invitrogen; product no: 21090022; containing Earles salt, but no L-glutamine), 90% Salt-Glucose-Glycine (SGG) medium: (114 mM NaCl, 0.219% NaHCO3, 5.292 mM KCL, 1 mM MgCl2, 2 mM CaCl2, 10 mM HEPES, 1 mM Glycine, 30 mM glucose, 0.5 mM sodium pyruvate, 0.1% Phenol Red), insulin-transferrin-selenite supplement (supplied by Sigma: 7.5 μg insulin/ml, 7.5 μg transferring/ml and 7.5 ng sodium selenite/ml); with a final osmolarity of 325 mosm/l. All subsequent steps were performed in this TM medium. 2. Samples of neurons are exposed to an NMDAR/PSD-95 inhibitor of the invention (compounds 40, 52-90) at a final concentration of between 0.05-50 μM for a period of between 0.5 to 1.5 hours. […] 3. Each sample of neurons was washed at least one time in TM medium to remove the NMDAR/PSD-95 inhibitor, and placed in TM medium. 4. After various periods of time, the samples of neurons were exposed to NMDA at a concentration of between 10-100 μM for a period of 0.5 to 1.5 hours, preferably 1 hour, after which the samples were again placed in TM medium for 24 hours. 5. LDH in the cell medium was quantified using commercial available kits (e.g. Promega Biotech AB, cat no G1780).

PDZ1-2 tandem of PSD-95 = target: T4, PDZ1-2 tandem of PSD-95 (Homo sapiens, UniProt P78352); assay: FP heterologous competition binding assay; settings: mean ± SEM
T4 construct: PDZ1-2 (residues 61-249) tandem; made in house; host or cells: E. coli BL21-DE3 pLysS
Source text: as §1, §2, §3

PDZ1-2 of PSD-95 = target: T5, PDZ1-2 of PSD-95 (Homo sapiens, UniProt P78352); assay: Isothermal titration calorimetry (ITC); format: binding; settings: for Kd: 25° C., PBS pH 7.4, mean ± SEM, read-out: ITC Kd PDZ12
T5 construct: PDZ1-2 (residues 61-249) tandem; made in house; host or cells: E. coli BL21-DE3 pLysS
Source text: This technique (Pierce, M. et al., 1999., Methods, p. 213-221) provides an exact determination of the affinity of a ligand for its target protein, as well as measuring the thermodynamic properties of the interaction, including enthalpy (ΔH), entropy (ΔS) and free energy (ΔG) together with the stoichiometric relationship of ligand binding. In this method, un-labeled ligand is titrated into a solution of un-labeled PDZ protein located in the calorimeter. Heat generated upon protein recognition is measured (ΔH) during the titration of the ligand and the PDZ protein until saturation is achieved, and the heat-exchange upon further ligand addition is negligible. Based on the amount of ligand needed to achieve saturation an affinity constant (Kd) is calculated and in addition ΔH, ΔS, ΔG and stoichiometry are determined.
Calorimetry experiments were performed on a microcalorimeter (Microcal, MA, USA). The ligands were titrated directly into the PDZ solution. All ligands and PDZ proteins were solubilized in PBS buffer (137 mM NaCl, 2.7 mM KCl, 10 mM Na2HPO4, 2 mM KH2PO4, pH 7.4) and when necessary pH was adjusted to 7.4 within 0.02 pH units after solubilization. The concentration of peptide and PDZ in solution was quantified by amino acid analysis. The calorimetry experiments were conducted at 25° C., where the PDZ1-2 concentration was generally adjusted to about 20 μM (200 μL in calorimeter) and the ligand concentration to between 200-2500 μM (injected to the protein as 20×2 μL). Experiments were designed so that c-value (c-value=Ka*[Protein]*n; where Ka is the affinity association constant, [Protein] means protein concentration, and n is the stoichiometry of the reaction) was within 1-1000. The analysed solution was stirred at 1000 rpm, with a reference power of 6 μcal/s. Heats of dilution were initially determined by titrating the ligand into buffer and subtracting these baseline values from the observed “heat values”. The data from each titration experiment were collected by ORIGIN 7.0 (Microcal, MA, USA), which was also used to determine the thermodynamic properties of ligand binding using non-linear least-squares fitting assuming a single-site model.

[2] = Human blood plasma stability assay; format: in vitro ADME; settings: for half-life at […]: human, plasma, Blood plasma half life (T1/2)
Method: In this assay, the half-life (T1/2) of a compound in blood plasma is measured in vitro, whereby its susceptibility to degradation by proteases, peptidases and general plasma contents is quantified.
Compounds of interest were dissolved in human blood plasma (270 μl; 3H Biomedical, Sweden, cat no 1300-1-P50) to a concentration of 0.25 mM (30 μL of 2.5 mM) and incubated at 37° C. Aliquots (30 μl) were removed at various time intervals (0, 5, 10, 20, 40, 80, 160, 320, 960, 1280, 2550, 4560 and 7240 min) and quenched with 60 μL trichloroacetic acid (aq., 5%). The aliquots were vortexed, and incubated for at least 15 min, at 4° C. prior to centrifugation at 18,000 g for 2 min and the supernatant was analyzed by RP-HPLC to quantify the remaining compound (absorbance at 218 nm).

Row | Compound | Ki (PDZ1 of PSD-95) | Ki (PDZ2 of PSD-95) [µM] | Ki (PDZ3 of PSD-95) [µM] | effect on NMDA-mediated excitotoxicity, in words [1] | Ki (PDZ1-2 tandem of PSD-95) [µM] | other results
1 | CC(C)[C@H](NC(=O)[C@H](C)NC(=O)[C@@H](NC(=O)[C@H](CCC(=O)O)NCCC1CCCCC1)C(C)O)C(=O)O (stereo partly shown) [Compound 56, N-Cyclohexylethyl-ETAV] | 1 µM and 0.94 µM | 0.45 ± 0.13 | 11 ± 0.43 | inhibit neuronal excitotoxicity, as efficiently as the clinical candidate Tat-N2B (3) | – | fold increase in affinity (more potent) compared to NR2B peptide (1), PDZ1 (PDZ1 of PSD-95): ca. 19 fold; selectivity towards PDZ1 relatively to PDZ3 (PDZ1 of PSD-95): 10 fold; fold increase in affinity compared to NR2B peptide (1), PDZ2 (PDZ2 of PSD-95): 9 fold; selectivity towards PDZ2 relatively to PDZ3 (PDZ2 of PSD-95): 20 fold
2 | CC(C)C[C@H](NC(=O)CNC(=O)[C@H](CO)NC(=O)[C@@H](N)CCCCN)C(=O)N[C@@H](CC(=O)O)C(=O)N[C@H](C(=O)N[C@@H](CCCCN)C(=O)N[C@@H](CC(N)=O)C(=O)N[C@@H](Cc1ccc(O)cc1)C(=O)N[C@@H](CCCCN)C(=O)N[C@@H](CCC(N)=O)C(=O)N[C@H](C(=O)N[C@@H](CO)C(=O)N[C@H](C(=O)O)C(C)C)[C@@H](C)O)[C@@H](C)O [CRIPT (2), reference compound] | 97 ± 18 µM | 25 ± 1.6 | 2.1 ± 0.15 | – | 45 ± 4.1 | –
3 | CC[C@H](C)[C@H](NC(=O)CCOCCOCCOCCOCCOCCC(=O)N[C@H](C(=O)N[C@@H](CCC(=O)O)C(=O)N[C@@H](CO)C(=O)N[C@@H](CC(=O)O)C(=O)N[C@H](C(=O)O)C(C)C)[C@@H](C)CC)C(=O)N[C@@H](CCC(=O)O)C(=O)N[C@@H](CO)C(=O)N[C@@H](CC(=O)O)C(=O)N[C@H](C(=O)O)C(C)C [(IESDV)2PEG4 (78), (IESDV)2PEG4] | – | – | – | – | ~0.1 | Kd (PDZ1-2 of PSD-95): 0.032 ± 0.01 µM; degradation in human blood plasma, in words [2]: no significant degradation could be detected over a time period of 6 days; half-life at […] [2]: > 133 h
4 | CC[C@H](C)[C@H](NC(=O)CCOCCOCCOCCOCCOCCC(=O)N[C@H](C(=O)N[C@@H](CCC(=O)O)C(=O)N[C@H](C(=O)N[C@@H](C)C(=O)N[C@H](C(=O)O)C(C)C)[C@@H](C)O)[C@@H](C)CC)C(=O)N[C@@H](CCC(=O)O)C(=O)N[C@H](C(=O)N[C@@H](C)C(=O)N[C@H](C(=O)O)C(C)C)[C@@H](C)O [(IETAV)2PEG4 (83), (IETAV)2PEG4] | – | 1.1 ± 0.07 | – | – | ~0.1 | fold greater affinity towards PDZ1-2 compared to Tat-NR2B (3) (WT or Tat-NR2B) (PDZ1-2 of PSD-95): about 1000 fold; Kd (PDZ1-2 of PSD-95): 0.011 ± 0.01 µM; fold increase in ligand affinity by dimerization compared to monomeric IETAV (82) (PDZ1-2 of PSD-95; PDZ1-2): 176 fold; half-life at […] [2]: 6.82 h
5 | CC(C)[C@H](NC(=O)[C@H](C)NC(=O)[C@@H](NC(=O)[C@H](C)NCCC1CCCCC1)[C@@H](C)O)C(=O)O [ATAV (73)] | 8.9 ± 1 µM | – | – | inhibit neuronal excitotoxicity, as efficiently as the clinical candidate Tat-N2B (3) | – | –
6 | CC(C)[C@H](NC(=O)[C@H](C)NC(=O)[C@@H](NC(=O)[C@H](CCC(=O)O)NCCc1ccc2ccccc2c1)C(C)O)C(=O)O (stereo partly shown) [Compound 63, N-(Naphtalene-2-yl)ethyl-ETAV] | 1 ± 0.33 µM | – | 10 ± 0.22 | inhibit neuronal excitotoxicity, as efficiently as the clinical candidate Tat-N2B (3) | – | –
7 | CC(C)[C@H](NC(=O)[C@H](C)NC(=O)[C@@H](NC(=O)[C@@H](N)CCC(=O)O)[C@@H](C)O)C(=O)O [ETAV (51), ETAV] | 29 ± 1.6 µM | 22 ± 0.92 | 260 ± 20 | – | – | –
8 | KSGYEKLSSIESDV-OH [NR2B (1), reference compound] | 18 ± 0.92 µM | 4.1 ± 0.17 | – | – | 7 ± 0.19 | affinity to PDZ3, in words (PDZ3 of PSD-95; FP assay): no binding
